# Patent US8445680B2, “Tetrahydrothieno pyridines” (Merck Sharp & Dohme Corp., priority 2008, dated 2013)
# Structures can show the parent of a compound that is named as a salt.
# Target: T1, FLAG-tagged full length PHD2 (Homo sapiens, UniProt Q9GZT9)
# T1 construct: FLAG-tagged full length PHD2; FLAG; made in house; host or cells: baculovirus-infected Sf9 cells
# Experiment: PHD2 inhibition assay (time resolved fluorescence, HIF-1α peptide hydroxylation, VHL detection)
# Assay type: biochemical
# Settings: 0.2 μM 2-oxoglutarate, 0.5 μM HIF-1α peptide, 2 hr at room temperature; read-out: PHD2 Activity (PHD2 binding activity expressed as IC50)
# Method: To each well of a 96-well plate was added 1 μL of test compound in DMSO and 20 μl of assay buffer (50 mM Tris pH 7.4/0.01% Tween-20/0.1 mg/ml bovine serum albumin/10 μM ferrous sulfate/1 mM sodium ascorbate/20 μg/ml catalase) containing 0.15 μg/ml FLAG-tagged full length PHD2 expressed in and purified from baculovirus-infected Sf9 cells. After a 30 min preincubation at room temperature, the enzymatic reactions were initiated by the addition of 4 μL of substrates (final concentrations of 0.2 μM 2-oxoglutarate and 0.5 μM HIF-1α peptide biotinyl-[…]).
# T1 sequence (Q9GZT9 whole entry): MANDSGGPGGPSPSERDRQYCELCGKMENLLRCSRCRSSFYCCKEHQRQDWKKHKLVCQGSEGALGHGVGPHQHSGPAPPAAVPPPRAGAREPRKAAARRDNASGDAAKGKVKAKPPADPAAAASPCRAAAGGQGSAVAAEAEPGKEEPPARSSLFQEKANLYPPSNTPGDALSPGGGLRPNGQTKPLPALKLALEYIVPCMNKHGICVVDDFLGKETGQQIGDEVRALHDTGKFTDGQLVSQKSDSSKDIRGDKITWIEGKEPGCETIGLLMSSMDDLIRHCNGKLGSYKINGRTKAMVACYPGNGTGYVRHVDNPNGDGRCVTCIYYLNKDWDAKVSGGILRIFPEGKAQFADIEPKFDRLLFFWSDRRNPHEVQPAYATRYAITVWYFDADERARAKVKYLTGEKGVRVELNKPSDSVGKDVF
row,SMILES,IC50
1,"N#Cc1ccc(Cn2c3c(c(O)c(C(=O)NCC(=O)O)c2=O)CSC3)cc1 [Example 3, N-{[1-(4-cyanobenzyl)-4-hydroxy-2-oxo-1,2,5,7-tetrahydrothieno[3,4-b]pyridin-3-yl]carbonyl}glycine]",≤ 10 nM
2,"O=C(O)CNC(=O)c1c(O)c2c(n(Cc3cnn(-c4ccccc4)c3)c1=O)CSC2 [Example 24, N-({4-hydroxy-2-oxo-1-[(1-phenyl-1H-pyrazol-4-yl)methyl]-1,2,5,7-tetrahydrothieno[3,4-b]pyridin-3-yl}carbonyl)glycine]",≤ 10 nM
3,"O=C(O)CNC(=O)c1c(O)c2c(n(Cc3ccc(-c4ccn[nH]4)cc3)c1=O)CSC2 [Example 27, N-({4-hydroxy-2-oxo-1-[4-(1H-pyrazol-5-yl)benzyl]-1,2,5,7-tetrahydrothieno[3,4-b]pyridin-3-yl}carbonyl)glycine]",≤ 10 nM
4,"O=C(O)CNC(=O)c1c(O)c2c(n(Cc3nc4ccccc4s3)c1=O)CSC2 [Example 11, N-{[1-(1,3-benzothiazol-2-ylmethyl)-4-hydroxy-2-oxo-1,2,5,7-tetrahydrothieno[3,4-b]pyridin-3-yl]carbonyl]glycine]",≤ 10 nM
5,"O=C(O)CNC(=O)c1c(O)c2c(n(Cc3coc(-c4ccccc4)n3)c1=O)CSC2 [Example 21, N-({4-hydroxy-2-oxo-1-[(2-phenyl-1,3-oxazol-4-yl)methyl]-1,2,5,7-tetrahydrothieno[3,4-b]pyridin-3-yl}carbonyl)glycine]",≤ 10 nM
6,"CCc1ccc(Cn2c3c(c(O)c(C(=O)NCC(=O)O)c2=O)CSC3)cc1 [Example 17, N-{[1-(4-ethylbenzyl)-4-hydroxy-2-oxo-1,2,5,7-tetrahydrothieno[3,4-b]pyridin-3-yl]carbonyl}glycine]",≤ 10 nM
7,"O=C(O)CNC(=O)c1c(O)c2c(n(Cc3noc(-c4ccccc4)n3)c1=O)CSC2 [Example 10, N-({4-hydroxy-2-oxo-1-[(5-phenyl-1,2,4-oxadiazol-3-yl)methyl]-1,2,5,7-tetrahydrothieno[3,4-b]pyridin-3-yl]carbonyl)glycine]",≤ 10 nM
8,"O=C(O)CNC(=O)c1c(O)c2c(n(Cc3ccc(-n4cccn4)cc3)c1=O)CSC2 [Example 23, N-({4-hydroxy-2-oxo-1-[4-(1H-pyrazol-1-yl)benzyl]-1,2,5,7-tetrahydrothieno[3,4-b]pyridin-3-yl}carbonyl)glycine]",≤ 10 nM
9,"O=C(O)CNC(=O)c1c(O)c2c(n(Cc3ccc(Cl)nc3)c1=O)CSC2 [Example 1, N-({1-[(6-chloropyridin-3-yl)methyl]-4-hydroxy-2-oxo-1,2,5,7-tetrahydrothieno[3,4-b]pyridin-3-yl}carbonyl)glycine]",≤ 10 nM
10,"O=C(O)CNC(=O)c1c(O)c2c(n(Cc3ccc(C(F)(F)F)nc3)c1=O)CSC2 [Example 5, N-[(4-hydroxy-2-oxo-1-{[6-(trifluoromethyl)pyridin-3-yl]methyl]-1,2,5,7-tetrahydrothieno[3,4-b]pyridin-3-yl)carbonyl]glycine]",≤ 10 nM

# Continued, values first:
row,IC50,SMILES
1,≤ 10 nM,"CC(=O)c1ccc(-c2ccc(Cn3c4c(c(O)c(C(=O)NCC(=O)O)c3=O)CSC4)cc2)cc1 [Example 28, N-({1-[(4′-acetylbiphenyl-4-yl)methyl]-4-hydroxy-2-oxo-1,2,5,7-tetrahydrothieno[3,4-b]pyridin-3-yl}carbonyl)glycine]"
2,≤ 10 nM,"O=C(O)CNC(=O)c1c(O)c2c(n(Cc3ccc(Oc4ccc(F)cc4)cc3)c1=O)CSC2 [Example 32, N-({l-[4-(4-fluorophenoxy)benzyl]-4-hydroxy-2-oxo-1,2,5,7-tetrahydrothieno[3,4-b]pyridin-3-yl}carbonyl)glycine]"
3,≤ 10 nM,"O=C(O)CNC(=O)c1c(O)c2c(n(Cc3ccc(-c4ccc(F)cc4)nc3)c1=O)CSC2 [Example 40, N-[(1-{[6-(4-fluorophenyl)pyridinium-3-yl]methyl}-4-hydroxy-2-oxo-1,2,5,7-tetrahydrothieno[3,4-b]pyridin-3-yl)carbonyl]glycine trifluoroacetate]"
4,≤ 10 nM,"O=C(O)CNC(=O)c1c(O)c2c(n(Cc3ccc(-c4cccc(Cl)c4)nc3)c1=O)CSC2 [Example 39, N-[(l-{[6-(3-chlorophenyl)pyridinium-3-yl]methyl}-4-hydroxy-2-oxo-1,2,5,7-tetrahydrothieno[3,4-b]pyridin-3-yl)carbonyl]glycine trifluoroacetate]"
5,≤ 10 nM,"CCOc1ccc(-c2ccc(Cn3c4c(c(O)c(C(=O)NCC(=O)O)c3=O)CSC4)cc2)cc1 [Example 34, N-({1-[(4′-ethoxybiphenyl-4-yl)methyl]-4-hydroxy-2-oxo-1,2,5,7-tetrahydrothieno[3,4-b]pyridin-3-yl}carbonyl)glycine]"
6,≤ 10 nM,"O=C(O)CNC(=O)c1c(O)c2c(n(Cc3ccc(-c4ccccc4Cl)nc3)c1=O)CSC2 [Example 41, N-[(l-{[6-(2-chlorophenyl)pyridinium-3-yl]methyl}-4-hydroxy-2-oxo-1,2,5,7-tetrahydrothieno[3,4-b]pyridin-3-yl)carbonyl]glycine trifluoroacetate]"
7,≤ 10 nM,"O=C(O)CNC(=O)c1c(O)c2c(n(Cc3ccc(-c4ccccc4)cc3)c1=O)CS(=O)(=O)C2 [Example 64, N-{[1-(biphenyl-4-ylmethyl)-4-hydroxy-6,6-dioxido-2-oxo-1,2,5,7-tetrahydrothieno[3,4-b]pyridin-3-yl]carbonyl}glycine]"
8,≤ 10 nM,"O=C(O)CNC(=O)c1c(O)c2c(n(Cc3ccc(-c4cccc(OC(F)(F)F)c4)nc3)c1=O)CSC2 [Example 49, N-{[4-hydroxy-2-oxo-1-({6-[3-(trifluoromethoxy)phenyl]pyridinium-3-yl}methyl)-1,2,5,7-tetrahydrothieno[3,4-b]pyridin-3-yl]carbonyl}glycine trifluoroacetate]"
9,≤ 10 nM,"O=C(O)CNC(=O)c1c(O)c2c(n(Cc3ccc(OC(F)(F)F)cc3)c1=O)CS(=O)(=O)C2 [Example 65, N-({4-hydroxy-6,6-dioxido-2-oxo-1-[4-(trifluoromethoxy)benzyl]-1,2,5,7-tetrahydrothieno[3,4-b]pyridin-3-yl}carbonyl)glycine]"
10,≤ 10 nM,"Cc1ccccc1-c1ccc(Cn2c3c(c(O)c(C(=O)NCC(=O)O)c2=O)CSC3)cn1 [Example 48, N-[(4-hydroxy-1-{[6-(2-methylphenyl)pyridinium-3-yl-methyl}-2-oxo-1,2,5,7-tetrahydrothieno[3,4-b]pyridin-3-yl)carbonyl]glycine trifluoroacetate]"
11,10 to 100 nM,"O=C(O)CNC(=O)c1c(O)c2c(n(Cc3nc(-c4ccccc4)cs3)c1=O)CS(=O)(=O)C2 [Example 62, N-({4-hydroxy-6,6-dioxido-2-oxo-1-[(4-phenyl-1,3-thiazol-2-yl)methyl]-1,2,5,7-tetrahydrothieno[3,4-b]pyridin-3-yl}carbonyl)glycine]"
